Measured values as given in ChEMBL document CHEMBL1201862, “PubChem BioAssay data set” (2004).
Active and inactive are the calls of the source.

Tests used:
[1] = biological target: Cytochrome P450 2C19 (Homo sapiens, UniProt P33261); experiment: Cytochrome panel assay with activity outcomes. Panel member name: p450-cyp2c19 Compounds with AC50 equal or less than 10 uM are considered active; assay type: functional
[2] = biological target: Cytochrome P450 3A4 (Homo sapiens, UniProt P08684);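 also: CYP3A4 tested as one member of a cytochrome P450 panel screen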
[3] = inhibitors of intracellular T. cruzi replication, confirmation, NIH3T3 host cells, beta-gal luminescence (AID 2044); assay type: functional, cell-based;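 also: intracellular parasites grown in NIH/3T3 mouse fibroblasts as host cells; luminescent beta-galactosidase reporter signal from transgenic T. cruzi replicating inside host cells; inhibitors lower the luminescence signal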
[4] = cytotoxicity toward NIH3T3 fibroblasts, dose response, counter-screen, cell-based, ATP luminescence, mouse fibroblasts (AID 2010); assay type: functional;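 also: cells exposed to compound for about 90 hours before reading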
[5] = biological target: Cytochrome P450 2C9 (Homo sapiens, UniProt P11712)
[6] = biological target: T1, Cytochrome P450 1A2 (Homo sapiens, UniProt P05177)
T1 sequence (P05177 whole entry): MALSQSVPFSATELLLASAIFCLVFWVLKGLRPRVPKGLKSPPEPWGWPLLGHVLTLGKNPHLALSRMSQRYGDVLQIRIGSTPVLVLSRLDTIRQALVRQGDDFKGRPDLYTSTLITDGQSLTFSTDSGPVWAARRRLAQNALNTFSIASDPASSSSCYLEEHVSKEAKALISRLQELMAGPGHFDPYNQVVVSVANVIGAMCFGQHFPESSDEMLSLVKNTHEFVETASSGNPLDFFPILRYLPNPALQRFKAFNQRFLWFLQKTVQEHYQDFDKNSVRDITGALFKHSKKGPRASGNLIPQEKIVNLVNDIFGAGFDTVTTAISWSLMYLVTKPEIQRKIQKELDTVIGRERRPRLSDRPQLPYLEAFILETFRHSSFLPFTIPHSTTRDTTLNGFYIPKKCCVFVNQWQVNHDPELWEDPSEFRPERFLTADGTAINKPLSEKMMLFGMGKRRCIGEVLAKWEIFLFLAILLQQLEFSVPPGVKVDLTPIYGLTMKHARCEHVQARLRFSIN

[7] = test system: Streptococcus sp. 'group A'; experiment: growth inhibition of control SK(-) GAS strain, dose response, counter-screen for streptokinase expression inhibitor project, luminescence, kanamycin, BacTiterGlo, confirmation (AID 1900); assay type: functional, organism-based
[8] = test system: Streptococcus; experiment: Group A Streptococcus viability loss, dose response, counter-screen for streptokinase expression inhibitor project, luminescence, BacTiterGlo (AID 1915); assay type: functional, organism-based;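 also: potency for reduction of bacterial viability or growth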
[9] = inhibitors of SNCA 5'UTR-driven reporter translation, confirmation, H4 neuroglioma cells, luminescence (AID 1988); assay type: functional, cell-based
[10] = Luminescence Cell-Based Dose Response HTS to Identify Inhibitors of 5'UTR Stem-Loop Driven Prion Protein mRNA Translation in H4 Neuroglioblastoma Cells. [Related pubchem assays: 1827 (Project Summary), 1813 (Primary HTS)]; assay type: functional

Cytochrome P450 2C9, sequence (P11712 whole entry): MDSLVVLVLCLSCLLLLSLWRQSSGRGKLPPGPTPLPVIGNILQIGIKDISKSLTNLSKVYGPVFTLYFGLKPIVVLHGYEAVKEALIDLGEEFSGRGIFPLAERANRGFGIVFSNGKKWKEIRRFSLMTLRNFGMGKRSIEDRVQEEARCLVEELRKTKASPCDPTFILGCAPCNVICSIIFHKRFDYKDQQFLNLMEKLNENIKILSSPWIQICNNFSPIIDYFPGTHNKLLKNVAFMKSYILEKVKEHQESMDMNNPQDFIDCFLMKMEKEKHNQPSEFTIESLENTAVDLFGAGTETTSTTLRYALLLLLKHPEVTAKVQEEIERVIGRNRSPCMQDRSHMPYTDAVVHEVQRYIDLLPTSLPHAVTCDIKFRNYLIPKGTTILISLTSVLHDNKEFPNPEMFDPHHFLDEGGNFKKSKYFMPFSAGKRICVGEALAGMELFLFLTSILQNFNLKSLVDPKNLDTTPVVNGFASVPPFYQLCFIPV
Cytochrome P450 3A4, sequence (P08684 whole entry): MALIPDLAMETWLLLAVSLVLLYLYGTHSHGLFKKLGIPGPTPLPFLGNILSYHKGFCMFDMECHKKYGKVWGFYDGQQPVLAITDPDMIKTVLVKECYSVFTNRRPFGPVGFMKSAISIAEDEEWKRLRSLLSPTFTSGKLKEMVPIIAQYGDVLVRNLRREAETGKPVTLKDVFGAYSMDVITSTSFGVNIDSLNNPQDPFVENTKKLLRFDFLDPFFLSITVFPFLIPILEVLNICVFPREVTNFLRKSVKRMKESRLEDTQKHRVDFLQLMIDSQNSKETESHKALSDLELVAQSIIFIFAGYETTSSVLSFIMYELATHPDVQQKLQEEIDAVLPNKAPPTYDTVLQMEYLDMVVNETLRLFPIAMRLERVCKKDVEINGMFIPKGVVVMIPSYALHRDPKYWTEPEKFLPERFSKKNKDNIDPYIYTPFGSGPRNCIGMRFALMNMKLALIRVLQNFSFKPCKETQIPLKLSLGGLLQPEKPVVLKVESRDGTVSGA
Cytochrome P450 2C19, sequence (P33261 whole entry): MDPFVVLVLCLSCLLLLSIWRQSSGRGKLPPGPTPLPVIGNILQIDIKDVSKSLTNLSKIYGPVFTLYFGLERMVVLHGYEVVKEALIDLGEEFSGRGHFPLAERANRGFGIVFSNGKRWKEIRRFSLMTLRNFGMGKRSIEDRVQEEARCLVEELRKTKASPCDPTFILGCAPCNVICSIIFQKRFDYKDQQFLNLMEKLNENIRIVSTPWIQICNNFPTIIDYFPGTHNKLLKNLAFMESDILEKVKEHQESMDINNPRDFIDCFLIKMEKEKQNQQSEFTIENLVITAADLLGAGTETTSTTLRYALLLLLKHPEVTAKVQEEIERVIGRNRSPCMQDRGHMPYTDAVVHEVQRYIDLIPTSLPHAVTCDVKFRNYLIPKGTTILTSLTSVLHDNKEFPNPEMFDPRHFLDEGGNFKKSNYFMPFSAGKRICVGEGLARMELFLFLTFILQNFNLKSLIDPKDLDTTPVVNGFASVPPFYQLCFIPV

SMILES: CC(=O)OC[C@@H]1O[C@H](C/C=N\OCC[C@H]2C=C[C@H](OC(C)=O)[C@@H](COC(C)=O)O2)C=C[C@@H]1OC(C)=O
- AC50 [1]: inconclusive
- AC50 [2]: 3.16 µM (inconclusive)

SMILES: CC(=O)c1ccc(N2CCN(c3ccc(S(=O)(=O)NCCN(C)C)cc3[N+](=O)[O-])CC2)cc1
- EC50 [3]: 0.454 µM (active)
- EC50 [4]: > 16 µM (not active)

SMILES: COc1cccc(/N=c2\oc3c(C)ncc(CO)c3cc2C(N)=O)c1
- AC50 [5]: 11.2 µM (inconclusive)
- AC50 [1]: inconclusive

SMILES: CCCCN1C(=O)CCC(C(=O)O)C1c1ccccc1 (configuration not stated)
- AC50 [1]: inconclusive

SMILES: N#C[C@H](Cc1ccc(O)cc1)c1ccc(O)cc1
- AC50 [5]: 39.8 µM (inconclusive)
- AC50 ([1]; read-out: AC50): 2 µM (inconclusive)

SMILES: COC(=O)[C@@]1(Cc2ccc(F)cc2)[C@H]2c3cc(C(=O)N4CCCC4)n(CCF)c3C[C@H]2CN1C(=O)c1ccccc1
- AC50 [6]: 15.8 µM (inconclusive)

SMILES: COc1ccc(Oc2ncc3nc(C)c(=O)n(CCC#N)c3n2)cc1
- AC50 [6]: 25.1 µM (inconclusive)

SMILES: CCCS(=O)(=O)N1CCCC(C(=O)N2CCN(c3ccccc3)CC2)C1 (configuration not stated)
- AC50 [6]: 0.00501 µM (inconclusive)
- AC50 [5]: 14.1 µM (inconclusive)
- AC50 ([1]; read-out: AC50): 6.31 µM (inconclusive)
- AC50 [2]: 14.1 µM (inconclusive)

SMILES: Cc1cc(C)c(C#N)c(SCC(=O)Nc2nnc(-c3ccccc3)s2)n1
- EC50 [3]: > 30 µM (not active)
- EC50 [4]: > 30 µM (not active)

SMILES: CCSc1nnc2n(N)c(=O)c3ccccc3n12
- AC50 [2]: 15.8 µM (inconclusive)

SMILES: Cc1nc2cnc(N3CCN(C)CC3)nc2n(CCc2ccccc2)c1=O
- AC50 [2]: 15.8 µM (inconclusive)

SMILES: Cc1nc2cnc(N3CCNCC3)nc2n(Cc2ccc(F)cc2)c1=O
- AC50 [5]: 25.1 µM (inconclusive)
- AC50 [1]: inconclusive

SMILES: Cc1ccc2c(c1)C1CN(C)CCC1N2C(=S)NC(=O)c1ccc(Br)cc1 (configuration not stated)
- EC50 [3]: 0.828 µM (active)
- EC50 [4]: 41.5 µM (active)

SMILES: CCCn1c(=O)c2c(ncn2C)n(CCC)c1=O
- AC50 [2]: 20 µM (inconclusive)

SMILES: COc1ccc(/C=N/NC(=O)CCCC(=O)NC2CCCCC2)cc1
- AC50 [5]: 10 µM (inconclusive)
- AC50 ([1]; read-out: AC50): 14.1 µM (inconclusive)

SMILES: CCOc1c2ccc(C(=O)NCCCCc3ccccc3)cc2nn1CC
- AC50 [6]: 6.31 µM (inconclusive)
- AC50 ([1]; read-out: AC50): 8.91 µM (inconclusive)

SMILES: Cc1ccc(C)c(NC(=O)C2(C)CC3c4ccccc4C2c2ccccc23)c1 (configuration not stated)
- AC50 [5]: 10 µM (inconclusive)
- AC50 ([1]; read-out: AC50): 0.00562 µM (inconclusive)

SMILES: NC(=S)SCCC(=O)O
- AC50 [6]: 1.58 µM (inconclusive)

SMILES: O=S(=O)(c1ccc2ccccc2c1)N1CCC(c2nc(-c3ccncc3)no2)CC1
- EC50 [3]: 0.564 µM (active)
- EC50 [4]: > 60 µM (not active)

SMILES: Fc1cccc(C[n+]2csc3ccccc32)c1
- EC50 [3]: 1.99 µM (active)
- EC50 [4]: > 60 µM (not active)

SMILES: COc1ccc(C(=O)Nc2cc(OC)cc(OC)c2)cc1
- AC50 [5]: 22.4 µM (inconclusive)

SMILES: CCN1CCN(Cc2ccc(NC(=O)c3cc(NC(=O)c4cc(-c5ccc(OC)cc5)[nH]n4)cc(OC)c3)cc2C(F)(F)F)CC1
- EC50 [7]: 4.15 µM (active)
- EC50 [8]: 7.21 µM (active)

SMILES: CCN(C(=O)COC(=O)c1cc(-c2ccc3cc(OC)ccc3c2)nc2ccccc12)C1CCS(=O)(=O)C1 (configuration not stated)
- EC50 [9]: 11 µM (active)
- EC50 [10]: 13.9 µM (active)

SMILES: CN(C)CN1C(=O)S/C(=C2/C(=O)N(CN(C)C)c3ccccc32)C1=O
- AC50 [6]: 0.794 µM (inconclusive)

SMILES: C=C[C@]1(C)C[C@@H](OC(=O)CSCCN(CC)CC)[C@]2(C)C(C)CC[C@]3(CCC(=O)[C@H]32)[C@@H](C)[C@@H]1O (some centres not stated)
- EC50 [7]: < 0.06 µM (active)
- EC50 [8]: 0.182 µM (active)

SMILES: Cn1cccc1C(=O)N1CCC2(CCN(Cc3ccncc3)CC2)CC1
- AC50 [6]: 15.8 µM (inconclusive)
- AC50 ([1]; read-out: AC50): 15.8 µM (inconclusive)
- AC50 [2]: 12.6 µM (inconclusive)

SMILES: C/C(=N/CCN1CCN(C(=S)Nc2ccccc2)CC1)C1=C(O)CC(C)(C)CC1=O
- AC50 [5]: 28.2 µM (inconclusive)

SMILES: C=CCNC(=O)c1onc(CSc2ccc(F)cc2)c1C(=O)O
- AC50 [2]: 22.4 µM (inconclusive)

SMILES: O=C(NCc1cccnc1)c1ccc(-c2cc(Cl)ccc2Cl)o1
- EC50 [3]: 1.72 µM (active)
- EC50 [4]: > 30 µM (not active)

SMILES: CCOc1c2ccc(C(=O)NCc3ccco3)cc2nn1CC
- AC50 [5]: 10 µM (inconclusive)
- AC50 [2]: 31.6 µM (inconclusive)

SMILES: O=C(O)C1CCN(c2ncnc3ccc(-c4ccccc4C(F)(F)F)cc23)CC1
- AC50 [2]: 39.8 µM (inconclusive)

SMILES: COc1ccccc1CNc1ncnc2ccc(-c3cccnc3)cc12
- AC50 ([1]; read-out: AC50): 20 µM (inconclusive)

SMILES: CC(C)(Oc1ccc(-c2cccc3ccccc23)cc1)C(=O)O
- AC50 [5]: 0.398 µM (inconclusive)
- AC50 [1]: inconclusive

SMILES: COc1cccc(CNCCNC(=O)c2nonc2N)c1
- AC50 [6]: 39.8 µM (inconclusive)

SMILES: Cc1nc2cnc(N3CCNCC3)nc2n(C)c1=O
- AC50 [1]: inconclusive
- AC50 [2]: 15.8 µM (inconclusive)

SMILES: COc1ccccc1CNc1cc(-c2ccccc2Cl)ncn1
- AC50 [2]: 39.8 µM (inconclusive)

SMILES: COc1ccccc1-c1cc2nc(C)c(CCC(=O)NCc3ccc(F)cc3)c(C)n2n1
- EC50 [3]: 2.06 µM (active)
- EC50 [4]: > 60 µM (not active)

SMILES: C=CCNC(=O)c1ccc(-c2nc(-c3ccc(Cl)c(Cl)c3)cs2)cc1
- AC50 ([1]; read-out: AC50): 28.2 µM (inconclusive)
- AC50 [2]: 7.94 µM (inconclusive)

SMILES: Cc1cc(C(=O)N2CCCC(N3CCN(c4ccccc4C)CC3)C2)n(C)n1 (configuration not stated)
- EC50 [3]: > 30 µM (not active)
- EC50 [4]: > 30 µM (not active)

SMILES: COc1nnc(OC)c2ccccc12
- AC50 ([1]; read-out: AC50): 0.0631 µM (inconclusive)

SMILES: CCN1CCN(c2ccc(S(=O)(=O)N3CCCCC3)cc2NC(=O)c2ccc(C)o2)CC1
- EC50 [3]: 2.01 µM (active)
- EC50 [4]: > 60 µM (not active)

SMILES: O=c1cnc2cnc(N3CCNCC3)nc2n1Cc1ccc(F)cc1
- AC50 [5]: 20 µM (inconclusive)

SMILES: Cc1c(S(=O)(=O)O)ccc(/N=N\c2c(O)c(C(=O)O)cc3ccccc23)c1Cl
- AC50 [6]: 5.01 µM (inconclusive)

SMILES: CCCCC(=O)Nc1nnc(SCC(=O)NC2CCCC2)s1
- AC50 ([1]; read-out: AC50): 35.5 µM (inconclusive)

SMILES: N#CCCn1c(=O)c(-c2ccccc2)nc2cnc(N3CCOCC3)nc21
- AC50 [6]: 10 µM (inconclusive)

SMILES: COc1ccc(N(C(=O)COc2ccccc2OC)S(=O)(=O)c2ccc(C)cc2)cc1
- AC50 [6]: 4.47 µM (inconclusive)

SMILES: O=C(c1cccc(C(F)(F)F)c1)C1CCCN(Cc2ccc(OCCO)cc2)C1 (configuration not stated)
- EC50 [3]: 0.402 µM (active)
- EC50 [4]: > 30 µM (not active)

SMILES: Cc1ccc(S(=O)(=O)N[C@H](CN)C(=O)O)cc1
- AC50 [1]: inconclusive

SMILES: CC(C)CCn1nnnc1C(c1ccc(F)cc1)N1CCN(C(=O)c2ccco2)CC1 (configuration not stated)
- AC50 [5]: 11.2 µM (inconclusive)

SMILES: Cc1cc(N2CCN(c3ccccc3)CC2)nc(NCc2ccccc2)n1
- EC50 [3]: 0.809 µM (active)
- EC50 [4]: > 30 µM (not active)

SMILES: CCN(c1ccccc1)S(=O)(=O)c1cc(C(=O)Nc2ccc(Br)cc2)ccc1F
- EC50 [3]: 2.66 µM (active)
- EC50 [4]: > 60 µM (not active)

SMILES: O=C(NC1CCCCC1)C1CC=CCC1C(=O)OCC(Cl)=C(Cl)Cl (configuration not stated)
- AC50 [6]: 25.1 µM (inconclusive)

SMILES: CC(C)(C)c1ccccc1OCC(=O)Nc1ccccc1C(=O)NCc1cccnc1
- EC50 [3]: 3.61 µM (active)
- EC50 [4]: > 60 µM (not active)

SMILES: CC(C)(C)c1cc(Br)c(O)c(CN(Cc2cc(C(C)(C)C)cc(Br)c2O)C2CCCCC2)c1
- AC50 [6]: 5.01 µM (inconclusive)
- AC50 [5]: 3.16 µM (inconclusive)

SMILES: Cc1cccc(NC(=O)c2cc(=O)c3ccccc3o2)n1
- AC50 [5]: 3.16 µM (inconclusive)
- AC50 ([1]; read-out: AC50): 14.1 µM (inconclusive)
- AC50 [2]: 25.1 µM (inconclusive)

SMILES: COCc1nc2c([nH]1)c(=O)n(C)c(=O)n2CC(C)C
- AC50 [2]: 1.26 µM (inconclusive)

SMILES: CNc1cc(-c2ccccc2CN(C)C)ncn1
- AC50 [6]: 31.6 µM (inconclusive)

SMILES: CC(C)N(CCNC(=O)C1CCN(S(=O)(=O)N2CCOCC2)CC1)Cc1ccccc1
- AC50 [5]: 20 µM (inconclusive)
- AC50 ([1]; read-out: AC50): 39.8 µM (inconclusive)

SMILES: CCCS(=O)(=O)N1CCCC(C(=O)NCCN2CCC(Cc3ccccc3)CC2)C1 (configuration not stated)
- AC50 [5]: 5.01 µM (inconclusive)

SMILES: CC(C)Oc1ccc(CSC(=N)N)cc1
- AC50 [6]: 22.4 µM (inconclusive)
- AC50 ([1]; read-out: AC50): 5.62 µM (inconclusive)
